According to US10744150B2, “Cyclic dinucleotides as anticancer agents” (BRISTOL-MYERS SQUIBB COMPANY, priority 2017, dated 2020):
pEC50, pIC50: −log10 of the molar value. Where two headings read alike, the source gives them in different places.

Legend:
[1] = target: T1, STING WT: His-TVMV-S-hSTING(155-341)-H232R (Homo sapiens, UniProt Q86WV6, H232R); assay: STING HTRF binding assay (time resolved FRET competition), STING WT; details: 20 nM His-tagged STING cytoplasmic domain, 200 nM fluorescein-labeled cGAMP analog probe, one hour; read-out: HTRF Binding Assays IC50 STING WT
T1 construct: His-TVMV-S-hSTING(155-341)-H232R
Method: (§1) A time resolved FRET-based competition binding assay was used to assess test article binding to STING WT and STING AQ. His-tagged STING cytoplasmic domain (WT or AQ) at a concentration of 20 nM was incubated with 2.5 nM Tb-labeled anti-His antibody, test compound, and fluorescein-labeled cGAMP analog probe (BioLog cat. no. C195) at a concentration of 200 nM (STING WT) or 40 nM (STING AQ) in PBS containing 0.005% Tween-20 and 0.1% BSA for one hour. Fluorescence at 495 nm and 520 nm was measured using an EnVision microplate reader to quantify FRET between Tb-labeled anti-His antibody and fluorescein-labeled probe. Background was defined as the signal obtained in the absence of STING protein, and background subtracted FRET ratios were normalized to the maximum signal obtained in the absence of test compound. These values were converted to a percent inhibition. Percent inhibition was determined for test compounds at 11 concentrations. The IC50, defined as the concentration of competing test compound needed to reduce specific binding of the probe by 50%, was calculated using the 4 parameter logistic equation to fit the data

[2] = system: IRF3; assay: STING THP1 reporter assay, IRF pathway (secreted luciferase Lucia, QUANTI-Luc); format: cell-based; details: THP1-Dual cells, 10% human plasma, 100% activation = 100 μM cGAMP, luciferase readout, read-out: THP1 Reporter Assays EC50 IRF3
Text: (§2) THP1-Dual™ cells were derived from the human THP-1 monocyte cell line by stable integration of two inducible reporter constructs. To this end, THP1-Dual™ cells allow the simultaneous study of the NF-κB pathway, by monitoring the activity of SEAP, and the IRF pathway by assessing the activity of a secreted luciferase (Lucia). Both reporter proteins are readily measurable in the cell culture supernatant when using QUANTI-Blue™, a SEAP detection reagent, and QUANTI-Luc™, a luciferase detection reagent.
(§3) THP1-Dual™ cells induce the activation of NF-κB in response to STING agonists. They also trigger the IRF pathway upon stimulation with STING agonists, such as cGAMP. Here, the THP-1-Dual cells were used to assess STING binders for function on the cellular level.
(§4) Serial dilutions of compounds in DMSO were added to low volume 384 well plates at 100 nl/well using an ECHO acoustic dispenser (Labcyte, model 550) to achieve final starting concentration of 100 μM in cell suspension. THP-1 Dual™ STING reporter cells (Invivogen, Dual cells cat # THPD-nfis) were added to the plates with compounds at 15,000 cells in 10 μL per well in RPMI media (Gibco, cat #11875) containing 10% human plasma in a low volume 384-well black wall clear bottom tissue culture plate (Corning, cat #3542) for SEAP assay and low volume solid white plate (Corning, cat #3826) for luciferase assay. One column of the plate was reserved for treatment with cGAMP at 100 μM for 100% activation calculation and one column for no treatment (DMSO only) for baseline activation. Plates were then incubated in 37° C. incubator at 5% CO2 for 20 hours.
(§5) In the SEAP assay, 5 μl of 2× QuantiBlue (Invivogen, cat # Rep-qb2) is added to 384 well black plates seeded with THP1 cells and incubated at 37° C. for 2 hours. Plates were read on the Envision (Perkin Elmer) at 620 nm wavelength (OD620). In the luciferase assay, 5 μl of Quantiluc (Invivogen, Rep-qlc2) is added to white 384 well plates seeded with THP1 cells and read at 5 minutes on the Envision (Perkin Elmer) using a luminescence protocol (RLU). For both cell lines, 100% activation was determined by value (RLU) of THP-1 Dual STING cells stimulated with 100 μM cGAMP (Invivogen, cat # TLRL-NACGA23-5).

[3] = system: NFkB; assay: STING THP1 reporter assay, NF-κB pathway (SEAP, QUANTI-Blue); format: cell-based; details: THP1-Dual cells, 10% human plasma, 100% activation = 100 μM cGAMP
Text: as §2, §3, §4, §5

[4] = target: T2, STING AQ: His-TVMV-S-hSTING(155-341)-G230A-R293Q (Homo sapiens, UniProt Q86WV6, G230A/H232R/R293Q); assay: STING HTRF binding assay (time resolved FRET competition), STING AQ; details: 20 nM His-tagged STING cytoplasmic domain, 40 nM fluorescein-labeled cGAMP analog probe, one hour; read-out: HTRF Binding Assays IC50 STING AQ
T2 construct: His-TVMV-S-hSTING(155-341)-G230A-R293Q
Method: as §1

[5] = 20 hours, SEAP readout OD620, read-out: THP1 Reporter Assays EC50 NFkB
[6] = Homo sapiens, THP-1, 20 h, SEAP readout OD620, read-out: THP1 Reporter Assays EC50 NFkB

T2 sequence (Q86WV6 with tags, fused parts or gaps G230A/H232R/R293Q): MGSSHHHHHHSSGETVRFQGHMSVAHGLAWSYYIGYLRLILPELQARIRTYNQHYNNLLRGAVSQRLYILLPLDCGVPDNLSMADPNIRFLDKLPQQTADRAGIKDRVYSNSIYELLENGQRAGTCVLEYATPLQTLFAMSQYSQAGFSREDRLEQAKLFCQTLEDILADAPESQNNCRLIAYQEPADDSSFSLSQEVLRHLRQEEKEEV
T1 sequence (Q86WV6 with tags, fused parts or gaps H232R): as the sequence (Q86WV6 with tags, fused parts or gaps G230A/H232R/R293Q) above, with A99G, Q162R counted along it

Row | Structure (SMILES) | pIC50 [1] | pEC50 ([2]; 20 hours) | pEC50 [3, 5] | pIC50 [4] | pEC50 ([2]; Homo sapiens, THP-1, 20 h) | pEC50 [3, 6]
1 | Nc1ncnc2c1ncn2[C@@H]1C[C@@H]2COP(O)(=S)O[C@@H]3[C@H](O)[C@@H](COP(O)(=S)OC[C@H]21)O[C@H]3n1cnc2c(N)ncnc21 (single isomer, unassigned) [Example 4-2] | 5.43 | 4.14 | 4.06 | 7.30 | – | –
2 | Nc1ncnc2c1ncn2[C@@H]1C[C@@H]2COP(O)(=S)O[C@H]3[C@@H](F)[C@H](n4cnc5c(=O)[nH]c6nccn6c54)O[C@@H]3COP(O)(=S)OC[C@H]21 (single isomer, unassigned) [Example 9-1] | < 4.00 | – | – | 4.70 | < 4.00 | < 4.00
3 | NC(=O)c1cccc2c1nnn2[C@@H]1O[C@@H]2COP(O)(=S)OC[C@@H]3[C@@H](COP(O)(=S)O[C@@H]1[C@@H]2F)C[C@H]3n1cnc2c(N)ncnc21 (single isomer, unassigned) [Example 11-3] | 6.09 | 4.15 | 4.29 | 6.96 | – | –
4 | O=c1[nH]c2nccn2c2c1ncn2[C@@H]1O[C@@H]2COP(=O)(S)OC[C@@H]3[C@@H](COP(=O)(S)O[C@@H]1[C@@H]2O)C[C@H]3n1cnc2c(O)ncnc21 (single isomer, unassigned) [Example 14-4] | 5.37 | < 4.00 | < 4.00 | 6.04 | – | –
5 | Nc1ncnc2c1ncn2[C@@H]1C[C@@H]2COP(O)(=S)O[C@@H]3[C@H](O)[C@@H](COP(O)(=S)OC[C@H]21)O[C@H]3n1cnc2c(N)ncnc21 (single isomer, unassigned) [Example 4-1] | < 4.00 | – | – | 5.55 | < 4.00 | < 4.00
6 | Nc1ncnc2c1ncn2[C@@H]1C[C@@H]2COP(=O)(S)O[C@H]3[C@@H](F)[C@H](n4cnc5c(N)ncnc54)O[C@@H]3COP(=O)(S)OC[C@H]21 (single isomer, unassigned) [Example 2-2] | 6.06 | 4.07 | < 4.00 | 8.00 | – | –
7 | NC(=O)c1cccc2c1nnn2[C@@H]1C[C@@H]2COP(O)(=S)O[C@H]3[C@@H](F)[C@H](n4cnc5c(N)ncnc54)O[C@@H]3COP(O)(=S)OC[C@H]21 (single isomer, unassigned) [Example 13-3] | < 4.00 | < 4.00 | < 4.00 | 5.42 | – | –
8 | Nc1ncnc2c1ncn2[C@@H]1O[C@@H]2COP(O)(=S)OC[C@@H]3[C@@H](COP(O)(=S)O[C@H]2[C@H]1F)C[C@H]3n1cnc2c(O)nc3nccn3c21 (single isomer, unassigned) [Example 3-2] | 5.40 | < 4.00 | < 4.00 | 6.34 | – | –
9 | Nc1ncnc2c1ncn2[C@@H]1C[C@@H]2COP(O)(=S)O[C@H]3C[C@H](n4ccc5c(Cl)ncnc54)O[C@@H]3COP(=O)(S)OC[C@H]21 (single isomer, unassigned) [Example 6-1] | < 4.00 | – | – | 4.41 | < 4.00 | < 4.00
10 | Nc1nc2c(ncn2[C@@H]2C[C@@H]3COP(O)(=S)O[C@H]4[C@@H](F)[C@H](n5cnc6c(N)ncnc65)O[C@@H]4COP(O)(=S)OC[C@H]32)c(=O)[nH]1 (single isomer, unassigned) [Example 18-1] | 8.40 | 6.22 | 5.59 | 8.70 | – | –
11 | Nc1ncnc2c1ncn2[C@@H]1C[C@@H]2COP(=O)(O)O[C@H]3[C@@H](F)[C@H](n4cnc5c(N)ncnc54)O[C@@H]3COP(=O)(O)OC[C@H]21 [Example 10, (1R,6S,8R,9R,15R,17R,18R)-8,17-bis(6-amino-9H-purin-9-yl)-18-fluoro-3,12-dihydroxy-2,4,11,13,16-pentaoxa-3λ^5,12λ^5-diphosphatricyclo[13.3.0.0^6,9]octadecane-3,12-dione] | 5.28 | – | – | 7.40 | < 4.00 | < 4.00
12 | Nc1ncnc2c1ncn2[C@@H]1C[C@@H]2COP(O)(=S)O[C@H]3[C@@H](F)[C@H](n4cnc5c(=O)[nH]c6nccn6c54)O[C@@H]3COP(O)(=S)OC[C@H]21 (single isomer, unassigned) [Example 9-4] | 5.85 | < 4.00 | < 4.00 | 7.10 | – | –
13 | Nc1ncnc2c1ncn2[C@@H]1O[C@@H]2COP(O)(=S)OC[C@@H]3[C@@H](COP(O)(=S)O[C@H]2[C@H]1F)C[C@H]3n1cnc2c(O)nc3nccn3c21 (single isomer, unassigned) [Example 3-4] | 6.00 | 4.51 | 4.40 | 7.05 | – | –
14 | Nc1nc2c(ncn2[C@@H]2C[C@@H]3COP(O)(=S)O[C@H]4[C@@H](F)[C@H](n5cnc6c(N)ncnc65)O[C@@H]4COP(O)(=S)OC[C@H]32)c(=O)[nH]1 (single isomer, unassigned) [Example 18-3] | 6.28 | < 4.00 | < 4.00 | 7.70 | – | –
15 | NC(=O)c1cccc2c1nnn2[C@@H]1O[C@@H]2COP(O)(=S)OC[C@@H]3[C@@H](COP(O)(=S)O[C@@H]1[C@@H]2F)C[C@H]3n1cnc2c(N)ncnc21 (single isomer, unassigned) [Example 11-4] | 4.18 | < 4.00 | < 4.00 | 4.64 | – | –
16 | NC(=O)c1cccc2c1nnn2[C@@H]1C[C@@H]2COP(O)(=S)O[C@H]3[C@@H](F)[C@H](n4cnc5c(N)ncnc54)O[C@@H]3COP(O)(=S)OC[C@H]21 (single isomer, unassigned) [Example 13-2] | < 4.00 | < 4.00 | < 4.00 | 5.52 | – | –
17 | Nc1ncnc2c1ccn2[C@@H]1O[C@@H]2COP(O)(=S)OC[C@@H]3[C@@H](COP(O)(=S)O[C@H]2[C@@H]1F)C[C@H]3n1cnc2c(N)ncnc21 (single isomer, unassigned) [Example 8-2] | 4.48 | < 4.00 | 4.01 | < 4.00 | – | –
18 | Nc1ncnc2c1ncn2[C@@H]1O[C@@H]2COP(O)(=S)OC[C@@H]3[C@@H](COP(O)(=S)O[C@H]2[C@H]1F)C[C@H]3n1cnc2c(=O)[nH]cnc21 (single isomer, unassigned) [Example 5-1] | 5.24 | < 4.00 | – | 7.00 | – | < 4.00
